Measurements reported in ChEMBL document CHEMBL3044678, “The synthesis and herbicidal activity of 1-alkyl-3-(alpha-hydroxy-substituted benzylidene)pyrrolidine-2,4-diones” (2005).
Active and inactive are the calls of the source. The calls are words filed in the database; no cut-off is given here.

Columns and labels:
Echinochloa crus-galli [1] = assay: Herbicidal activity against Echinochloa crus-galli (barnyard grass) assessed as growth inhibition at 10 ug/mL; format: functional; details: (L.) Beauv, read-out: GI
Brassica napus [2] = assay: Herbicidal activity against Brassica napus (oilseed rape) assessed as growth inhibition at 100 ug/mL; format: functional; details: read-out: GI
Echinochloa crus-galli [3] = assay: Herbicidal activity against Echinochloa crus-galli (barnyard grass) assessed as plant bleaching effect at 100 ug/mL; format: functional, organism-based; details: (L.) Beauv
Echinochloa crus-galli [4] = assay: Herbicidal activity against Echinochloa crus-galli (barnyard grass) assessed as growth inhibition at 100 ug/mL; format: functional; details: (L.) Beauv, read-out: GI
Brassica napus [5] = assay: Herbicidal activity against Brassica napus (oilseed rape) assessed as growth inhibition at 10 ug/mL; format: functional; details: read-out: GI

| Structure (SMILES) | inhibition of growth at 10 µg/mL (Echinochloa crus-galli [1]) [%] | inhibition of growth at 100 µg/mL (Brassica napus [2]) [%] | Activity (Echinochloa crus-galli [3]) | inhibition of growth at 100 µg/mL (Echinochloa crus-galli [4]) [%] | inhibition of growth at 10 µg/mL (Brassica napus [5]) [%] |
| --- | --- | --- | --- | --- | --- |
| CS(=O)(=O)c1ccc(C(=O)C2C(=O)CCCC2=O)c(Cl)c1 [SULCOTRIONE] | 29.4 | 38.1 | Active | 45.1 | 3.5 |
| Cc1cccc(/C(O)=C2\C(=O)CN(C(C)C)C2=O)c1 | 49.2 | 82.1 | Active | 75.5 | 3.3 |
| CC(C)N1CC(=O)/C(=C(/O)c2cccc([N+](=O)[O-])c2)C1=O | 0 | 70.3 | inactive | 42 | 10.2 |
| COc1ccc(/C(O)=C2\C(=O)CN(C(C)(C)C)C2=O)cc1 | 78.7 | 77.7 | Active | 80.3 | 5.4 |
| CN1CC(=O)/C(=C(/O)c2cccc([N+](=O)[O-])c2)C1=O | 5.2 | 22.4 | inactive | 42.8 | 0 |
| COc1ccc(/C(O)=C2\C(=O)CN(C)C2=O)cc1 | 16.2 | 50.7 | Active | 78.8 | 7.9 |
| Cc1ccc(/C(O)=C2\C(=O)CN(C(C)(C)C)C2=O)cc1 | 36.3 | 88.1 | inactive | 48 | 13.5 |
| CC(C)N1CC(=O)/C(=C(/O)c2ccccc2Cl)C1=O | 51 | 66.8 | Active | 77.9 | 38.9 |
| Cc1ccccc1/C(O)=C1\C(=O)CN(C(C)(C)C)C1=O | 63.6 | 74.9 | Active | 74.4 | 21.1 |
| Cc1cccc(/C(O)=C2\C(=O)CN(C(C)(C)C)C2=O)c1 | 4.9 | 85 | inactive | 48.5 | 24.9 |
| CC(C)(C)N1CC(=O)/C(=C(/O)c2ccc(Cl)cc2)C1=O | 0.4 | 98 | inactive | 20.8 | 13.8 |
| CC(C)N1CC(=O)/C(=C(/O)c2ccc([N+](=O)[O-])cc2)C1=O | 0 | 34.2 | inactive | 1.6 | 4.5 |
| CC(C)(C)N1CC(=O)/C(=C(/O)c2ccc([N+](=O)[O-])cc2)C1=O | 0 | 48.1 | inactive | 9.8 | 1.8 |
| CN1CC(=O)/C(=C(/O)c2ccc(Cl)cc2)C1=O | 9.4 | 90.5 | inactive | 50.1 | 15.8 |
| COc1ccccc1/C(O)=C1\C(=O)CN(C(C)C)C1=O | 77.3 | 58.7 | Active | 78.1 | 3 |
| CN1CC(=O)/C(=C(/O)c2ccc([N+](=O)[O-])cc2)C1=O | 9 | 40.9 | inactive | 51.9 | 5.1 |
| COc1ccc(/C(O)=C2\C(=O)CN(C(C)C)C2=O)cc1 | 79.6 | 71 | Active | 80 | 11.9 |
| CC(C)N1CC(=O)/C(=C(/O)c2ccc(Cl)cc2)C1=O | 25.1 | 77.2 | Active | 68 | 16 |
| COc1ccccc1/C(O)=C1\C(=O)CN(C(C)(C)C)C1=O | 74.9 | 69.5 | Active | 82.9 | 41.2 |
| CC(C)(C)N1CC(=O)/C(=C(/O)c2cccc([N+](=O)[O-])c2)C1=O | 0 | 80.1 | inactive | 0.5 | 22.1 |
| Cc1ccccc1/C(O)=C1\C(=O)CN(C(C)C)C1=O | 76.9 | 62.4 | Active | 77.3 | 15.2 |
| Cc1cccc(/C(O)=C2\C(=O)CN(C)C2=O)c1 | 25.3 | 64 | Active | 68.3 | 14 |
| Cc1ccccc1/C(O)=C1\C(=O)CN(C)C1=O | 31.2 | 44.4 | Active | 78.3 | 0 |
| Cc1ccc(/C(O)=C2\C(=O)CN(C(C)C)C2=O)cc1 | 76.8 | 86.4 | Active | 78.4 | 8.1 |
